{"source": "patent US12097204B2", "about": "“Solid pharmaceutical composition containing 1,3,5-triazine derivative or salt thereof” (CHIA TAI TIANQING PHARMACEUTICAL GROUP CO., LTD., priority 2018, dated 2024)", "assay": "Solubility of the compound of formula I", "assay_type": "physicochemical"}
{"compound": "CC(C)(C)ONc1nc(Nc2ccnc(C(F)(F)F)c2)nc(-c2cccc(C(F)(F)F)n2)n1", "note": "[compound of formula I, 4-(tert-butoxyamino)-6-(6-(trifluoromethyl)pyridin-2-yl)-N-(2-(trifluoromethyl)pyridin-4-yl)-1,3,5-triazin-2-amine]", "values": [{"measurement": "Solubility in either acidic or basic condition", "setting": "acidic or basic condition", "result": "poor solubility"}, {"measurement": "Solubility in water", "setting": "water", "result": "hardly soluble"}]}
